Columns and labels:
[1] = system: living oral carcinoma cells (SqCHN); test: Selective toxicity, cell killing of carcinoma cells over 8 days; type: cell-based; conditions: for selective toxicity towards carcinoma cells: carcinoma cells compared to normal oral epithelial cells; for cell death of carcinoma cells: incubated with dye fraction, washed, observed over 8 days
Procedure: (§1) The compounds represented by peaks 5, 6, 7 and 8, obtained during the fractionation of the toluidine blue O, are analyzed for their selective toxicity towards living oral carcinoma cells (SqCHN) compared to living normal oral epithelial cells. Separate cultures of squamous carcinoma cells and normal epithelial cells are incubated with the different dye fractions and then washed with dye-free medium. The cells are then re-incubated in growth medium and observed over a period of 8 days to determine the extent of cell killing. The compound of peak 6 results in 95% cell death of carcinoma cells, compared to only about 20% killing of normal cells.

[2] = system: head and neck and lung carcinomas implanted in Balb-C mice; test: In-vivo delay of tumor growth and tumor regression assay; conditions: tumor-bearing Balb-C mice
Procedure: (§2) The therapeutic characteristics of the compounds of peaks 6 and 8 are determined by further in-vitro tests, conducted in the manner of Example 8, using other isolates of carcinoma cells and normal epithelial cells. The testing profile includes other squamous carcinomas of the head and neck, esophagus, lung, cervix and skin, as well as other types of cancers, including adenocarcinomas, lymphomas and sarcomas. In-vivo “delay of tumor growth” and “tumor regression assay” tests using tumor-bearing animals, including head and neck and lung carcinomas implanted in Balb-C mice, are made to analyze the in-vivo therapeutic benefit of these compounds.

[3] = system: other squamous carcinomas, adenocarcinomas, lymphomas and sarcomas; test: Further in-vitro tests with other isolates of carcinoma cells and normal epithelial cells; type: cell-based; conditions: conducted in the manner of Example 8
Procedure: as §2

[4] = system: living normal oral epithelial cells; test: Selective toxicity, cell killing of normal cells over 8 days; type: cell-based; conditions: incubated with dye fraction, washed, observed over 8 days
Procedure: as §1

carcinoma cells = test: Uptake and retention of mitochondrial marking agents in living carcinoma cells; type: cell-based; conditions: 5 minute incubation, rinsed twice with 1% acetic acid, 2-butanol extraction, spectrophotometry
Procedure: Different concentrations of the various cationic marking agents, at 100, 50, 10 and 1 μg/ml are prepared in RPMI medium complete with 20% fetal calf serum, 1 mM glutamine, hydrocortisone, insulin, transferrin, estradiol, selenium and growth hormone.
The carcinoma cells are incubated at 37EC in tissue culture incubators with 5% CO2 and 95% relative humidity, for 5 minutes with each agent and concentration there and then rinsed twice using 2 minute incubations with 1% acetic acid. After incubation and rinsing, the cells are harvested, at 30 min., 1 hour, 2 hours, 4 hours and 8 hours. The cells are then extracted with 2-butanol and analyzed by spectrophotometry for quantitation of the marking agent.

Compound | selective toxicity towards carcinoma cells [1] | selective toxicity, in-vivo therapeutic benefit [2] | selective toxicity to the wider variety of cancer cell types, in vitro [3] | cell death of carcinoma cells [1] | killing of normal cells [4] | saturation concentration (carcinoma cells)
CNc1ccc2nc3ccc(N)c(C)c3[s+]c2c1 [peak 5] | do not exhibit the same selective toxicity | – | – | – | – | –
CNc1ccc2nc3cc(C)c(N)cc3[s+]c2c1 [peak 6] | selectively toxic towards carcinoma cells | confirm the selective toxicity | confirm the selective toxicity | 95% | about 20% | –
Cc1c(N)ccc2nc3ccc(N(C)C)cc3[s+]c12 [peak 7] | do not exhibit the same selective toxicity | – | – | – | – | –
Cc1cc2nc3ccc(N(C)C)cc3[s+]c2cc1N [peak 8] | selectively toxic towards carcinoma cells | confirm the selective toxicity | confirm the selective toxicity | 89% | about 20% | –
Cc1cc2nc3ccc(N(C)C)cc3[s+]c2cc1N.[Cl-] [toluidine blue O] | – | – | – | – | – | ≥ 10 µg/mL
